Experimental findings from patent EP4656642A1, “ESTROGEN RECEPTOR PROTEOLYSIS TARGETING CHIMERA COMPOUND AND USE THEREOF” (GAN & LEE PHARM CO., LTD, priority 2023, dated 2024) are described below.

Common to all, as to type: cell-based
In experiment [1] the test system is MCF-7 cells. Briefly: Inhibition of cell proliferation of MCF-7 cells (CCK-8, 9 days). To be noted: treated for 9 days, CCK-8 kit (Table 6). An excerpt: Test Example 4 Inhibitory effect of the PROTAC compounds disclosed in the present disclosure on cell proliferation of MCF-7 cells
The complete medium required for MCF-7 cells (source ATCC) was DMEM (gibco, Product number :11995-065) basal medium containing 10% fetal bovine serum. MCF-7 cells were inoculated in 96-well plates at a density of 800 cells/well, and different concentrations of the PROTAC compounds 1-55 provided in the embodiments of the present disclosure and a positive control sample ARV-471 (source: Innochem) were prepared to treat cells, and cells were treated at 37°C in a cell culture incubator with 5% CO2 for 9 days. Cell viability was detected using a CCK -8 kit (Beyotime , Product number: C0040) according to the manufacturer's instruction. […] Table 5 IC50 values for inhibition of the proliferation of MCF-7 cells by the PROTAC compounds of the present disclosure and positive control sample
In general terms: Tetrazolium dyes change colour on reduction, which living cells bring about.

Experiment [2] deals with T1, ERα (Homo sapiens, UniProt P03372).
T1 sequence (P03372 1-595): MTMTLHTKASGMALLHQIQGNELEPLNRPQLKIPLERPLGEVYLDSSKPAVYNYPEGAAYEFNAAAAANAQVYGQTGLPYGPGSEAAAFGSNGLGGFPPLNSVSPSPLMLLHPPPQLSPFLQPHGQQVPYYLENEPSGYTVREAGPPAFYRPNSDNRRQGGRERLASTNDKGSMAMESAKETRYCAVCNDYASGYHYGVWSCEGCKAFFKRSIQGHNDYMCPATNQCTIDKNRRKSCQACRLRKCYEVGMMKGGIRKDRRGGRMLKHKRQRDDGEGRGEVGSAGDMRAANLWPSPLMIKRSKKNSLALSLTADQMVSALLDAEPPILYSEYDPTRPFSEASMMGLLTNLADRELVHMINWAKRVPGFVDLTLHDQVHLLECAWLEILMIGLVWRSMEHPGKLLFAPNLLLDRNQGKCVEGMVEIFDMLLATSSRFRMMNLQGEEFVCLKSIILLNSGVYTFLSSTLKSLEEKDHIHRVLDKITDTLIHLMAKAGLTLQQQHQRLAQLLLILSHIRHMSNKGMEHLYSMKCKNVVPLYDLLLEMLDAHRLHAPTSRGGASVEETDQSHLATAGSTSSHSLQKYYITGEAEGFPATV
Briefly: Degradation of ERα in T-47D cells (immunoblotting, 4 h). Details: host or cells: T-47D. Here is the method:
(§1) T-47D cells were inoculated into 6-well plates at a density of 3×10^5 cells/well and cultured at 37°C, 5% CO2 for 24 h. After the cells were attached to the wall, 1µL of the compound solution in dimethyl sulfoxide (final concentration 0.15-1000 nM) was added and continued to be cultured in the incubator with 5% CO2 at 37°C for 4 h. After 4 h, the culture medium was discarded, and each well was washed once with pre-cooled 1×DPBS, and the cells were lysed with a mixture of 50 µL of RIPA lysis buffer (P0013B, Beyotime) and 1× protease inhibitor (P1005, Beyotime), and then centrifuged at 14,000 g for 30 min at 4°C after resting on ice for 20 min, and the supernatant was carefully collected to detect the protein level of ERα by protein immunoblotting (Immunoblotting).
A general note: In western blotting, separated proteins are transferred to a membrane and probed.

For experiment [3], the target named is T1, ERα. Briefly: Degradation of ERα in MCF-7 cells (immunoblotting, 4 h). The protocol:
as §1, with “MCF-7” for “T-47D”, “24h.” for “24 h.”, “0.15-1000nM)” for “0.15-1000 nM)”, “in” for “in the”, “incubator at 37°C” for “incubator”, “CO2” for “CO2 at 37°C”
Protein immunoblotting: The total protein concentration in the collected cell lysate supernatant was determined by BCA Protein Concentration Assay Kit (Enhanced) (P0009, Beyotime). According to the total protein concentration detected by BCA, the protein was adjusted to 1 µg/µL with RIPA lysis buffer and 5× SDS-PAGE protein loading buffer (MB01015, Genscript), and the protein was denatured by water bath at 95°C for 5 min, and then centrifuged after denaturation to enrich the condensate on the wall of the centrifuge tubes as a loading sample. […] At the end of electrophoresis, the proteins in the SDS-PAGE gels were transferred to a PVDF membrane at a constant voltage of 100 V for 60 min. After that, the PVDF membrane corresponding to ERα protein and internal reference protein was cut out and incubated in 1×QµickBlock blocking solution (P0252, Beyotime) for 30 min at room temperature on a shaker. […] Protein profiles were analyzed by Image Studio Lite analysis software for grayscale values. Grayscale correction values were calculated for each sample using the Formula: corrected grayscale value = grayscale value of the target protein /corresponding grayscale value of the internal reference. The degradation rate for the compounds was then calculated by comparing the corrected grayscale values of the compound group to the control group. Table 7 Degradation rate (%) of ERα by the PROTAC compounds of the present disclosure and positive control sample in MCF-7 cells

For orientation: IC50 means the point on the concentration scale where inhibition reaches its midpoint. `O=C1CCC(N2Cc3c(ccc4c3OCC43CCN([C@@H]4CCN(CC5CCN(c6ccc([C@@H]7c8ccc(O)cc8CC[C@@H]7c7ccccc7)cc6)CC5)C[C@@H]4F)CC3)C2=O)C(=O)N1` (stereo partly shown) [J6]: the IC50 in experiment [1] is 9.31 nM. Besides, the figures for the “Degradation rate (%) of ERα in T-47D cells” value in experiment [2] (1nM compound) and in experiment [2] (10nM compound) were 39% and 81%, respectively. Besides, the figures for the “Degradation rate (%) of ERα in MCF-7 cells” value in experiment [3] (1nM compound) and in experiment [3] (10nM compound) were 52% and 68%, respectively.
The matching figures for `O=C1CCC(N2Cc3c(ccc4c3OCC43CCN(c4ccc(C(=O)N5CCN(c6ccc([C@@H]7c8ccc(O)cc8CC[C@@H]7c7ccccc7)cc6)CC5)nc4)CC3)C2=O)C(=O)N1` (stereo partly shown) [J3]: 8.23 nM, 42%, 63%, 34% and 49%.
The matching figures for `O=C1CCC(N2Cc3c(ccc4c3OCC43CCN(C[C@H]4CC[C@@H](OC5CCN(c6ccc([C@@H]7c8ccc(O)cc8CC[C@@H]7c7ccccc7)cc6)CC5)CC4)CC3)C2=O)C(=O)N1` (stereo partly shown) [G25]: 8.97 nM, 49%, 79%, 10% and 77%.
In turn, `O=C1CCC(N2Cc3c(ccc4c3OCC43CCN(C4CCC(OC5CCN(c6ccc([C@@H]7c8ccc(O)cc8CC[C@@H]7c7ccccc7)cc6)CC5)CC4)CC3)C2=O)C(=O)N1` (stereo partly shown) [K50] returned an IC50 in experiment [1] of 83.3 nM. In addition, the “Degradation rate (%) of ERα in T-47D cells” value in experiment [2] (1nM compound) stood at 52%; in experiment [2] (10nM compound), 84%. For the same compound, the “Degradation rate (%) of ERα in MCF-7 cells” value in experiment [3] (1nM compound) stood at 19%; in experiment [3] (10nM compound), 72%.
The matching figures for `O=C1CCC(N2Cc3c(ccc4c3OCC43CCN(C(=O)CN4CCN(C(=O)C5CCN(c6ccc([C@@H]7c8ccc(O)cc8CC[C@@H]7c7ccccc7)cc6)CC5)CC4)CC3)C2=O)C(=O)N1` (stereo partly shown) [K43]: 3070 nM, 66%, 84%, 23% and 69%.
The matching figures for `O=C1CCC(N2Cc3cc4c(cc3C2=O)CCC2(CN(CC3CCN(c5ccc([C@@H]6c7ccc(O)cc7CC[C@@H]6c6ccccc6)cc5)CC3)C2)O4)C(=O)N1` (stereo partly shown) [H2]: 5900 nM, -11%, -23%, -77% and -70%.
The matching figures for `O=C1CCC(N2Cc3c(ccc4c3OCC43CCN(C4CC5(C4)CN(C4CCN(c6ccc([C@@H]7c8ccc(O)cc8CC[C@@H]7c7ccccc7)cc6)CC4)C5)CC3)C2=O)C(=O)N1` (stereo partly shown) [K12]: 30 nM, 18%, 60%, 3% and 44%.
With `O=C1CCC(N2Cc3c(ccc4c3OCC43CCN(CC(=O)N(CC4CC4)C4CC5(CCN(c6ccc([C@@H]7c8ccc(O)cc8CC[C@@H]7c7ccccc7)cc6)CC5)C4)CC3)C2=O)C(=O)N1` (stereo partly shown) [H54], inhibition in experiment [1] was half-maximal at 260 nM (IC50). The “Degradation rate (%) of ERα in T-47D cells” value came to 24% in experiment [2] (1nM compound) and 60% in experiment [2] (10nM compound). Besides, the “Degradation rate (%) of ERα in MCF-7 cells” value in experiment [3] (1nM compound) is 11%; in experiment [3] (10nM compound), 44%.
In experiment [1], `CN(C(=O)CN1CCC2(CC1)COc1c2ccc2c1CN(C1CCC(=O)NC1=O)C2=O)C1CCN(c2ccc([C@@H]3c4ccc(O)cc4CC[C@@H]3c3ccccc3)cc2)CC1` (stereo partly shown) [K37] displayed an IC50 of 2510 nM. For the same compound, the “Degradation rate (%) of ERα in T-47D cells” value in experiment [2] (1nM compound) came to 48%; in experiment [2] (10nM compound), 56%. For the same compound, the “Degradation rate (%) of ERα in MCF-7 cells” value in experiment [3] (1nM compound) came to 20%; in experiment [3] (10nM compound) it was 23%.
Compound `C[C@@H]1Cc2cc(O)ccc2C(c2c(F)cc(N3CCC(N4CCC(C(=O)N5CCC6(CC5)COc5c6ccc6c5CN(C5CCC(=O)NC5=O)C6=O)CC4)CC3)cc2F)N1CC(F)F` (stereo partly shown) [F9] yielded an IC50 in experiment [1] of 4360 nM. Further, the figures for the “Degradation rate (%) of ERα in T-47D cells” value in experiment [2] (1nM compound) and in experiment [2] (10nM compound) were 42% and 38%, respectively. The “Degradation rate (%) of ERα in MCF-7 cells” value in experiment [3] (1nM compound) was determined as 46%; in experiment [3] (10nM compound), 45%.
The corresponding values for `O=C1CCC(N2Cc3c(ccc4c3OCC43CCN(C(=O)C4CCC(CN5CCN(c6ccc(C7c8ccc(O)cc8CCC7c7ccccc7)cc6)CC5)CC4)CC3)C2=O)C(=O)N1` (stereo not shown) [G16] are 3.07 nM, 68%, 81%, 54% and 70%.
The matching figures for `CC1Cc2c(ccc3[nH]ncc23)C(c2c(F)cc(N3CCC4(CC3)CC(N3CCC(N5CCC6(CC5)COc5c6ccc6c5CN(C5CCC(=O)NC5=O)C6=O)C(F)C3)C4)cc2F)N1CC(F)F` (stereo not shown) [G22]: 5.08 nM, 34%, 63%, 50% and 65%.
The corresponding values for `O=C1CCC(N2Cc3c(ccc4c3OCC43CCN(C4CN(C5CCN(c6ccc([C@@H]7c8ccc(O)cc8CC[C@@H]7c7ccccc7)cc6)CC5)C4)CC3)C2=O)C(=O)N1` (stereo partly shown) [A58] are 12.8 nM, 35%, 71%, 42% and 69%.
In experiment [1], `O=C1CCC(N2Cc3c(ccc4c3OCC43CCN(C(=O)CN4CCC(OC5CCN(c6ccc([C@@H]7c8ccc(O)cc8CC[C@@H]7c7ccccc7)cc6)CC5)CC4)CC3)C2=O)C(=O)N1` (stereo partly shown) [K47] gave an IC50 of 80.2 nM. Besides, the “Degradation rate (%) of ERα in T-47D cells” value was found to be 74% in experiment [2] (1nM compound) and 89% in experiment [2] (10nM compound). Further, the “Degradation rate (%) of ERα in MCF-7 cells” value in experiment [3] (1nM compound) is 57%; in experiment [3] (10nM compound) it was 80%.
